Assay [1] addresses Phospholipase A2 (Homo sapiens) (UniProt P04054). In words: Inhibition of PLA2 at 50 ug/ml.
In a further assay the test system is K562. In words: Cytotoxicity against human K562 cells. It counts as functional. The conditions noted are these: read-out: LC50 (the source's name).

Phospholipase A2 (Homo sapiens), sequence (P04054 23-148 limits assumed): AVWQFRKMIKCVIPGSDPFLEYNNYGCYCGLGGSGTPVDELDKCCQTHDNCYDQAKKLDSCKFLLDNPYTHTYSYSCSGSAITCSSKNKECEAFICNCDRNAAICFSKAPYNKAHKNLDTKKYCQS

`C#C/C=C\CCCCCCCCCCCCCC/C=C\CCC/C=C/C(O)CCCCC#C[C@H](O)C#CCCCCCC/C=C/[C@@H](O)C#C` (some centres undefined) [PETROCORTYNE E] registered an inhibition in assay [1] of 48%. The CC50 in the assay on K562 was determined as 7 µM. On to `C#C/C=C\CCCCCCCCCCCCC/C=C/C(O)CCCC/C=C\CCCCC#C[C@H](O)C#CCCCCCC/C=C/[C@@H](O)C#C` (some centres undefined) [PETROCORTYNE G], for which, in assay [1], the inhibition worked out at 36%. Further, the CC50 in the assay on K562 was determined as 30 µM. The like results for `C#C/C=C\CCCCCCCCCCCCCC/C=C\CCCCC(O)/C=C/CCCC#C[C@H](O)C#CCCCCCC/C=C/[C@@H](O)C#C` (some centres undefined) [PETROCORTYNE F] were, in that order, 25% and 21 µM.

`C#C/C=C\CCCCCCCCCCCCCCC(O)/C=C/CCC/C=C\CCCCC#C[C@H](O)C#CCCCCCC/C=C/[C@@H](O)C#C` (some centres undefined) [PETROCORTYNE H] gave an inhibition in assay [1] of 32%. Besides, the CC50 in the assay with K562 is 11 µM. As to `C#C/C=C\CCCCCCCCCCCCCC/C=C\CCCC/C=C\CCCCC#C[C@H](O)C#CCCCCCCCC[C@H](O)C#C` [PETROCORTYNE D], the CC50 in the assay with K562 is 45 µM.

(Values after ChEMBL document CHEMBL1150963, “Five new polyacetylenes from a sponge of the genus petrosia” (1998).)
